Assay [1] has as its target T1, WX-02 GDH (Bacillus licheniformis, UniProt X5FDW5).
T1 construct: primers encode native N-term MSKSVK (MG added before) and C-term AESYHD
T1 sequence (X5FDW5 1-367): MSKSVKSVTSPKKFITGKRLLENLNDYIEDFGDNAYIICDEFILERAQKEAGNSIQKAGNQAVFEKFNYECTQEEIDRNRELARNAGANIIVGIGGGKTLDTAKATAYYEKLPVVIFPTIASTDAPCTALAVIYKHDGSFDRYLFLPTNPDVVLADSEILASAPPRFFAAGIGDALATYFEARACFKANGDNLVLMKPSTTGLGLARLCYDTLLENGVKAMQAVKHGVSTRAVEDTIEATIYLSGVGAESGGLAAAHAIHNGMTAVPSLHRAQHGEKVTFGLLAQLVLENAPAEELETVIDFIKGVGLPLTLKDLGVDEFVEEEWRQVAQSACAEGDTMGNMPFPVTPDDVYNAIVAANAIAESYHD
The experiment in a line: NADH formation at […] nm. The format is biochemical. The settings on record: 4 mM NAD+; 50 mM substrate; Z buffer pH 7.0; 37 °C; 1 mM MgSO4, 10 mM DTT.

The target in assay [2] is T1, WX-02 GDH. The experiment in a line: NADH oxidation at […] nm. Type of assay: biochemical. The following applies: 0.2 mM NADH; 50 mM substrate; Z buffer pH 7.0; 37 °C; 1 mM MgSO4, 10 mM DTT.

For the compound `C[C@@H](O)[C@@H](C)O` [D-2,3-BD], the “NADH formation at 340 nm” value in assay [1] is given as “this enzyme exhibited the highest activity towards D-2,3-BD among various substrates”.

As for `CC(=O)[C@@H](C)O` [D-AC], the “NADH oxidation at 340 nm” value in assay [2] is “WX-02 GDH accepted D-AC, D-2,3-BD, meso-2,3-BD, and glycerol as substrates”.

Source of the values: PMC4890260, “Engineering Bacillus licheniformis for the production of meso-2,3-butanediol” (Biotechnology for Biofuels, 2016).
